Columns and labels:
[1] = test system: human ovarian cancer cell line, CRL-1572; test: Survival of mice bearing CRL-1572 ovarian cancer subcutaneous xenografts; type: in vivo; conditions: CRL-1572 xenografts; single agents at the drug doses employed
Source text: Fenretinide combined with taxanes is active against ovarian cancer Xenografts. Based on the surprising and favorable results observed when combining ABT-751 with fenretinide with neuroblastoma xenografts and vincristine with fenretinide for a lymphoma xenograft, we explored other types of cancer as xenografts and we also sought to test taxanes for a possible increase in activity when combined with fenretinide.

[2] = test system: human Ramos Burkitts lymphoma cell line; test: Survival of mice bearing Ramos lymphoma subcutaneous xenografts; type: in vivo; conditions: single agents at the drug doses employed
Description: Treating lymphoma xenografts with fenretinide combined with vincristine. […] Testing of fenretinide+vincristine was carried out as described for fenretinide+ABT-751 in Example 1, except that vincristine was given by i.p. injection twice a week during the 5 day administration of fenretinide.

[3] = test system: human neuroblastoma cell line CHLA-136; test: Event-free survival of mice bearing CHLA-136 subcutaneous xenografts; type: in vivo, nu/nu mice; conditions: CHLA-136 xenograft; single agents at the drug doses employed
Source text: Treating cancer in xenografts with fenretinide+ABT-751. Administration of fenretinide and ABT-751 in combination to nu/nu mice bearing subcutaneous xenografts of multi-drug resistant neuroblastoma xenografts (tumor cell lines are described in: Keshelava N, Zuo J J, Chen P, Waidyaratine S N, Luna M C, Gomer C J, Triche T J, Reynolds C P: Loss of p53 function confers high-level multi-drug resistance in neuroblastoma cell lines. Cancer Research 61:6185-6193, 2001, and xenograft methods are described in: Reynolds, C P, Sun B C, DeClerck Y A, Moats R A: Assessing growth and response to therapy in murine tumor models. Methods in Molecular Medicine Chemosensitivity Vol 2 ed. Blumenthal R D, Totowa: Humana Press pp 335-350, 2005.
Mice were treated daily with ABT-751, and twice daily with fenretinide for 5 days/week. Fenretinide was given as a powder LXS formulation mixed with water (Maurer B J, Kalous O, Yesair D W, Wu X, Vratilova J, Maldonado V, Khankaldyyan V, Frgala T, Sun B C, McKee R T, Burgess S W, Shaw W A, Reynolds C P. Improved oral delivery of N-(4-hydroxyphenyl)retinamide with novel LYM-X-SORB™ organized lipid complex in mice. Clinical Cancer Research (In Press, 2007)). Both drugs were given to mice by gavage.

[4] = cited from earlier work

Row | Compound | response of tumor cell line to single agent [1] | response of tumor cell line to single agent [2] | response of xenograft to single agent [3] | solubility in aqueous solution [4]
1 | CC(=O)O[C@H]1C(=O)[C@@]2(C)[C@H]([C@H](OC(=O)c3ccccc3)[C@]3(O)C[C@H](OC(=O)[C@H](O)[C@@H](NC(=O)c4ccccc4)c4ccccc4)C(C)=C1C3(C)C)[C@]1(OC(C)=O)CO[C@@H]1C[C@@H]2O [paclitaxel] | minimally responsive |  |  | 
2 | vincristine |  | minimally responsive |  | 
3 | COc1ccc(S(=O)(=O)Nc2cccnc2Nc2ccc(O)cc2)cc1 [ABT-751] |  |  | minimally response | 
4 | CC1=C(/C=C/C(C)=C/C=C/C(C)=C/C(=O)Nc2ccc(O)cc2)C(C)(C)CCC1 [fenretinide, all-trans-N-(4-hydroxyphenyl)retinamide] | minimally responsive | minimally responsive | minimally response | minimally soluble

Source: patent US20100035911A1, “DRUG COMBINATIONS TO TREAT HYPERPROLIFERATIVE DISORDERS” (priority 2006, published 2010)
